Data: US6465494B1, “Methods for treatment of cystic fibrosis” (Cell Pathways, Inc., priority 2001, dated 2002)
Where a name gives a salt, the structure may show the parent alone.

Key:
PDE5 [1] = target: T1, PDE5 (Homo sapiens, UniProt O76074); assay: competitive (with cGMP) binding to PDE5
PDE1 = assay: PDE inhibition, similar protocols: PDE1; format: biochemical
PDE4 = assay: PDE inhibition, similar protocols: PDE4; format: biochemical
[2] = acute toxicity study in rats; conditions: rat, in vivo; for LD50: rats
[3] = acute and seven-dose toxicity in dogs (capsules); conditions: dog, in vivo
Procedure: Therefore, these dogs were subsequently administered seven consecutive doses of 1000 mg/kg/day.

[4] = seven-day dose-range finding study in rats; format: in vivo; conditions: 7 days
28-day study in rats = format: in vivo
Procedure: A 28-day study in rats was also carried out at 0, 50, 500 and 2000 mg/kg/day.

[5] = 91-day long-term safety assessment study in rats; format: in vivo
Text: These changes were not associated with any gross clinical abnormality.

[6] = 91-day oral study in dogs; format: in vivo
[7] = single, escalating dose human clinical safety study; format: in vivo; conditions: oral, 50 mg BID, 100 mg BID, 200 mg BID and 400 mg BID
[8] = test system: TNF-α secreted by TPA-induced U937 cells; assay: TNF-α immunoassay on culture media of TPA-treated U937 cells; format: cell-based
Procedure: One function of macrophages is to modulate the activity of other inflammatory cells through various cytokine molecules.
TNF-αlevels in the cell culture media were determined by using the TNF-α Immunoassay from R&D Systems (Cat. # DTA50) according to the manufacturer's protocol.

PDE5 [9] = target: T1, PDE5; assay: cGMP PDE inhibition, 3H-cGMP hydrolysis: PDE5; format: biochemical; design: partially purified cGMP-specific PDE isolated from HT-29 cells; endogenous in cells; host or cells: HT-29
Procedure: (Thompson, W. J., Teraski, W. L., Epstein, P. M., Strada, S. J., Advances in Cyclic Nucleotide Research, 10:69-92, 1979, which is incorporated herein by reference). […] The mixture is incubated at 30° C. for 10 minutes with isolated PDE2 and/or PDE5. Reactions are terminated, for example, by boiling the reaction mixture for 75 seconds. After cooling on ice, 100 μl of 0.5 mg/mL snake venom (O. Hannah venom available from Sigma) is added and incubated for 10 minutes at 30° C. This reaction is then terminated by the addition of an alcohol, e.g. 1 mL of 100% methanol. Assay samples are applied to 1 mL Dowex 1-X8 column; and washed with 1 mL of 100% methanol. The amount of radioactivity in the breakthrough and the wash from the column is combined and measured with a scintillation counter. The degree of phosphodiesterase inhibition is determined by calculating the amount of radioactivity in drug-treated reactions and comparing against a control sample (a reaction mixture lacking the tested compound but with drug solvent).
Compounds of this invention are also PDE2 and PDE5 inhibitors as taught in part U.S. patent application Ser. No. 09/046,739 filed Mar. 24, 1998. […] The amount of radioactivity in the breakthrough and the wash from the columns in then measured with a scintillation counter. […]

[10] = 28 days, 50, 500 and 2000 mg/kg/day

Q: For `CC1=C(CC(=O)NCc2ccccc2)c2cc(F)ccc2/C1=C\c1ccncc1` [Example 38, (Z)-5-fluoro-2-methyl-(4-pyridylidene)-3-(N-benzyl)indenylacetamide hydrochloride], which “competitive (with cGMP) binding to PDE 5” value (PDE5 [1]) is on record?
A: does competitively (with cGMP) bind to PDE 5

Q: What about the IC50 (PDE1) of the same compound?
A: 3 µM

Q: And the IC50 (PDE4)?
A: 6 µM

Q: What about the “acute toxicity on a single-dose basis” value [2] of the same compound?
A: not acutely toxic

Q: And the body weight gain ([2]; ip, 1000 mg/kg)?
A: reduced body weight gain

Q: And the necropsy finding ([2]; ip, 1000 mg/kg)?
A: mesenteric adhesions seen in some animals

Q: And the LD50 ([2]; ip, 1000 mg/kg, intraperitoneal, read-out: intraperitoneal LD50)?
A: > 1000 mg/kg

Q: And the body weight gains ([2]; po, 2000 mg/kg)?
A: slightly reduced

Q: And the LD50 ([2]; oral, read-out: oral LD50)?
A: > 2000 mg/kg

Q: What about the LD50 ([3]; both sexes, 1000 mg/kg, dogs, oral) of the same compound?
A: > 1000 mg/kg

Q: What about the signs of toxicity ([3]; 1000 mg/kg) of the same compound?
A: no signs of toxicity

Q: And the “signs of drug-related effects” value ([3]; 1000 mg/kg/day)?
A: At no time in either dosing phase were any obvious signs of drug-related effects observed

Q: What about the “observable signs of toxicity” value ([4]; 50 mg/kg/day) of the same compound?
A: no observable signs of toxicity

Q: What about the treatment-related effects ([4]; 500 mg/kg/day) of the same compound?
A: limited to an increase in absolute and relative liver weights in female rats

Q: What about the treatment-related effects ([4]; 2000 mg/kg/day) of the same compound?
A: labored breathing and/or abnormal respiratory sounds, decreased weights gains and food consumption in male rats, and increased liver weights in female rats

Q: What about the “hematological, blood chemistry and microscopic pathology changes” value ([4]; any dose level (50, 500, 2000 mg/kg/day)) of the same compound?
A: No hematological or blood chemistry changes nor any microscopic a pathology changes

Q: And the “macroscopic tissue changes at necropsy” value (28-day study in rats; 28 days)?
A: No macroscopic tissue changes

Q: What about the “histopathological evaluation of tissues” value (28-day study in rats; 28 days, 500 mg/kg/day) of the same compound?
A: one female at 500 mg/kg/day had increased mitotic figures in the thyroid gland

Q: What about the liver weights (28-day study in rats; 28 days, 2000 mg/kg/day) of the same compound?
A: statistically significant increase in liver weights

Q: What about the thyroid weights (28-day study in rats; 28 days, 2000 mg/kg/day) of the same compound?
A: statistically significant increases in thyroid weights

Q: And the “body weight changes, ophthalmoscopic examinations, hematological and blood chemistry values, urinalysis” value (28-day study in rats; [10])?
A: unremarkable

Q: And the clinical observations (28-day study in rats; [10])?
A: no abnormal clinical observations

Q: What about the “liver and thyroid weight increases at the lower doses” value (28-day study in rats; 28 days, 50 and 500 mg/kg/day) of the same compound?
A: not statistically significant

Q: And the “histopathological evaluation of tissues” value (28-day study in rats; 28 days, small number of animals at 2000 mg/kg/day)?
A: traces of follicular cell hypertrophy, increased numbers of mitotic figures (suggestive of possible cell proliferation) in the thyroid gland and mild centrilobular hypertrophy in the liver

Q: And the “clinical biochemistry and hematology” value ([5]; 91 days)?
A: no changes in clinical biochemistry and hematology were evident

Q: What about the “microscopic finding, follicular cells” value ([5]; 91 days, 500 mg/kg/day) of the same compound?
A: follicular cell hypertrophy

Q: What about the “microscopic finding, kidneys” value ([5]; 91 days, 200 and 500 mg/kg/day) of the same compound?
A: increase in accumulation of hyalin droplets in the kidneys

Q: What about the “microscopic finding, liver” value ([5]; 91 days, 200 and 500 mg/kg/day) of the same compound?
A: slight hepatocellular hypertrophy

Q: And the “liver and thyroid/parathyroid weights” value ([5]; 91 days, males and females at 200 and 500 mg/kg/day)?
A: dose-related trend to increased liver and thyroid/parathyroid weights

Q: And the toxicological effects overall ([5]; oral, 91 consecutive days, 50, 200 and 500 mg/kg/day)?
A: did not produce any major toxicological effects

Q: What about the tolerability ([6]; 91 days) of the same compound?
A: well tolerated

Q: And the feces observation ([6]; 91 days, 150 and 300 mg/kg/day)?
A: Orange discoloration of the feces

Q: And the body weights ([6]; 91 days, highest dose group)?
A: Slightly lowered body weights

Q: And the liver weights ([6]; 91 days, highest dose group)?
A: increased liver weights

Q: What about the “microscopic alterations of liver” value ([6]; 91 days, highest dose group) of the same compound?
A: no microscopic alterations

Q: And the toxicological effects overall ([6]; oral, 91 consecutive days, 50, 150 and 300 mg/kg/day)?
A: no toxicological effects

Q: And the side effects [7]?
A: no significant side effects at any dose

Q: And the “level of TNF-α secreted into cell culture media” value [8]?
A: significantly reduced

Q: What about the IC50 (PDE5 [9]) of the same compound?
A: 4 µM
